Assay results from patent publication US9624213B2 (Plexxikon Inc., priority 2011, dated 2017).

Key:
[1] = tested on: A375; experiment: A375_P-ERK / A375 cell activity; format: cell-based; conditions: Homo sapiens, A-375; A375 cells (A375_P-ERK)
Protocol: (§1) Compounds are assessed in a variety of cell based assays. For example human cell lines with B-Raf V600E mutation (A375 melanoma, SKMEL3 melanoma, and COLO205 colon adenocarcinoma), as well as tumorigenic cell lines with wild-type B-RAF (SW620 colon adenocarcinoma) or with Ras mutations (SKMEL2 melanoma and IPC298 melanoma). Similar assays may be used to assess additional tumorigenic cell lines with Ras mutations, including, but not limited to, M202, M207, M243, M244, M296, S117, HCT116, HCT15, DLD1, MiaPaCa, A549, NCI-H23, NCI-H460, HOP62, MDA-MB231, Hs-578T, HL60, MOLT-4, and CCRF-CEM.
(§2) On day 1, cells are counted, then centrifuged in a conical tube for 5 minutes at 1000 rpm. The supernatant is removed and cells are re-suspended as follows: • SW620 (ATCC catalog #CCL-27): resuspend in Leibovitz's L-15 medium, 2 mM L-glutamine, 10% fetal bovine serum to 6×10^4 cells/mL. • A375 (ATCC catalog #CRL-1619): resuspend in Dulbecco's modified Eagle's medium, 4 mM L-glutamine, 4.5 g/L D-glucose, 10% fetal bovine serum to 6×10^4 cells/mL. • COLO205 (ATCC catalog #CCL-222): resuspend in RPMI 1640, 2 mM L-glutamine, 1.5 g/L sodium bicarbonate, 4.5 g/L D-glucose, 10 mM HEPES, 1.0 mM sodium pyruvate, 10% fetal bovine serum to 6×10^4 cells/mL. • SKMEL2 (ATCC catalog #HTB-68): resuspend in Minimum Eagle essential medium, 2 mM L-glutamine, 1.5 g/L sodium bicarbonate, 0.1 mM non-essential amino acids, 1.0 mM sodium pyruvate, 10% fetal bovine serum to 6×10^4 cells/mL. • SKMEL3 (ATCC catalog #HTB-69): resuspend in McCoy's 5A medium, 1.5 mM L-glutamine, 15% fetal bovine serum to 6×10^4 cells/mL. • IPC298 (DSMZ catalog #ACC 251): resuspend in RPMI 1640, 2 mM L-glutamine, 10% fetal bovine serum to 6×10^4 cells/mL.
(§3) The cells are plated, 50 μL in each well of a 96-well dish (Corning 3610) and incubated at 37° C. in 5% CO2 overnight, cells plated to a final concentration of cells as follows: • SW620: 5,000 cells per well. • A375: 2,000 cells per well. • COLO205: 2,000 cells per well. • SKMEL2: 2,000 cells per well. • SKMEL3: 3,000 cells per well. • IPC298: 2,000 cells per well.
(§4) On day 2, compound at a maximum concentration of 5 mM is serially diluted 1:3 (e.g. 10 μL with 30 μL dimethyl sulfoxide) for a total of 8 point titration with DMSO as a control. A 1 μL aliquot of each dilution point and control is added to 249 μL growth media and 50 μL is added to a well containing cells, providing 10 μM compound at the maximum concentration point. The cells are incubated for 3 days at 37° C. in 5% CO2.
(§5) On day 5, ATPlite 1 step Luminescence Assay System (Perkin Elmer #6016739) is brought to room temperature along with the cell cultures. ATPlite is added 25 μL to each well, shake for 2 minutes, and the cells are incubated at room temperature for 10 minutes, then luminescence is read on Satire reader. The measured luminescence correlates directly with cell number, such that the reading as a function of compound concentration is used to determine the IC50 value.

[2] = tested on: COLO205; experiment: COLO205 cell growth inhibitory activity (ATPlite); format: cell-based; conditions: Homo sapiens, COLO 205, 72 h; COLO205 cells, growth inhibition, 3 days
Protocol: as §1, §2, §3, §4, §5

Structure (SMILES)	IC50 [1] [µM]	IC50 [2] [µM]
CN(C)S(=O)(=O)Nc1cccc(C(=O)c2c[nH]c3ncc(-c4cnc(C#N)nc4)cc23)c1F [Compound P-0096, 5-(2-cyanopyrimidin-5-yl)-3-[3-(dimethylsulfamoylamino)-2-fluoro-benzoyl]-1H-pyrrolo[2,3-b]pyridine]	< 1	< 1
CN(C)S(=O)(=O)Nc1cccc(C(=O)c2c[nH]c3ncc(-c4ccc(C(C)(C)O)cc4)cc23)c1F [Compound P-0103, 3-[3-(dimethylsulfamoylamino)-2-fluoro-benzoyl]-5-[4-(1-hydroxy-1-methyl-ethyl)phenyl]-1H-pyrrolo[2,3-b]pyridine]	< 1	< 1
CC(C)(O)c1ccc(-c2cnc3[nH]cc(C(=O)c4cccc(NS(=O)(=O)N5CCCC5)c4F)c3c2)cc1 [Compound P-0105, N-[2-fluoro-3-[5-[4-(1-hydroxy-1-methyl-ethyl)phenyl]-1H-pyrrolo[2,3-b]pyridine-3-carbonyl]phenyl]pyrrolidine-1-sulfonamide]	< 1	< 1
CCN(C)S(=O)(=O)Nc1cccc(C(=O)c2c[nH]c3ncc(-c4cnc(N5CCCC5)nc4)cc23)c1F [Compound P-0108, 3-[3-[[ethyl(methyl)sulfamoyl]amino]-2-fluoro-benzoyl]-5-(2-pyrrolidin-1-ylpyrimidin-5-yl)-1H-pyrrolo[2,3-b]pyridine]	< 1	> 1
O=C(c1cccc(NS(=O)(=O)N2CCCC2)c1F)c1c[nH]c2ncc(-c3cnc(NC4CC4)nc3)cc12 [Compound P-0232, N-[3-[5-[2-(cyclopropylamino)pyrimidin-5-yl]-1H-pyrrolo[2,3-b]pyridine-3-carbonyl]-2-fluoro-phenyl]pyrrolidine-1-sulfonamide]	< 1	< 1
CCOc1cnc(-c2cnc3[nH]cc(C(=O)c4c(F)ccc(NS(=O)(=O)N(C)C)c4F)c3c2)cn1 [Compound P-0244, 3-[3-(dimethylsulfamoylamino)-2,6-difluoro-benzoyl]-5-(5-ethoxypyrazin-2-yl)-1H-pyrrolo[2,3-b]pyridine]	> 1	> 1
CN(C)S(=O)(=O)Nc1cccc(C(=O)c2c[nH]c3ncc(-c4ccc(C(C)(C)C#N)cc4)cc23)c1F [Compound P-0245, 5-[4-(1-cyano-1-methyl-ethyl)phenyl]-3-[3-(dimethylsulfamoylamino)-2-fluoro-benzoyl]-1H-pyrrolo[2,3-b]pyridine]	< 1	< 1
COC(=O)C1(c2ccc(-c3cnc4[nH]cc(C(=O)c5cccc(NS(=O)(=O)N6CCCC6)c5F)c4c3)cc2)CC1 [Compound P-0254, methyl 1-[4-[3-[2-fluoro-3-(pyrrolidin-1-ylsulfonylamino)benzoyl]-1H-pyrrolo[2,3-b]pyridin-5-yl]phenyl]cyclopropanecarboxylate]	< 1	< 1
CN(C)S(=O)(=O)Nc1ccc(F)c(C(=O)c2c[nH]c3ncc(-c4ccc(C(C)(C)C#N)cc4)cc23)c1F [Compound P-0255]	< 1	< 1
CCN(C)S(=O)(=O)Nc1ccc(F)c(C(=O)c2c[nH]c3ncc(-c4cnc(N5CCN(C(=O)OC(C)(C)C)CC5)nc4)cc23)c1F [Compound P-0264, tert-butyl 4-[5-[3-[3-[[ethyl(methyl)sulfamoyl]amino]-2,6-difluoro-benzoyl]-1H-pyrrolo[2,3-b]pyridin-5-yl]pyrimidin-2-yl]piperazine-1-carboxylate]	< 1	< 1
O=C(c1c(F)ccc(NS(=O)(=O)N2CCCC2)c1F)c1c[nH]c2ncc(-c3cnc(N4CCOCC4)nc3)cc12 [Compound P-0266, N-[2,4-difluoro-3-[5-(2-morpholinopyrimidin-5-yl)-1H-pyrrolo[2,3-b]pyridine-3-carbonyl]phenyl]pyrrolidine-1-sulfonamide]	< 1	< 1
